The test system of one assay is SARS-CoV-2. In words: Antiviral activity against SARS-CoV-2 infected in human A549 cells transfected with ACE2 assessed as virus-induced cytopathic effect incubated for 4 days by microscopic analysis. It counts as functional, organism-based. The conditions noted are these: Severe acute respiratory syndrome coronavirus 2, A549, 96 h. For orientation: Protection from cytopathic effect is a common read-out in antiviral testing.

A short description of assay [1]: Inhibition of SARS-CoV-2 3CLpro using ACC-SAVLQSGFRK(DNP)-NH2 as substrate assessed as inhibition constant measured for 0.5 to 1 hr by fluorescence based analysis. On the set-up: species or system Severe acute respiratory syndrome coronavirus 2.
Another assay has as its target Procathepsin L (Homo sapiens, UniProt P07711). In words: Inhibition of human Cathepsin L.

Procathepsin L, sequence (P07711 whole entry): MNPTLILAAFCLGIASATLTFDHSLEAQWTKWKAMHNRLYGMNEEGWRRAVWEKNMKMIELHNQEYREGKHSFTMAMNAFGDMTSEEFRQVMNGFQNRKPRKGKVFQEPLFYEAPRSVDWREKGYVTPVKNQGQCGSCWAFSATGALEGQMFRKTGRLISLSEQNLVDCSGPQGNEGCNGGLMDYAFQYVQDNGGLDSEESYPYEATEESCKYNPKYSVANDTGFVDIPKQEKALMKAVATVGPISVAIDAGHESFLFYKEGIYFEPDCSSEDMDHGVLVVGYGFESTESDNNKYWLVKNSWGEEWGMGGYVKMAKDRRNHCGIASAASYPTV

As a reminder, the EC50 is the concentration needed to bring the measured effect to its halfway point. A word on the Ki: it is a measure of affinity in units of concentration, obtained from inhibition or displacement. `CC(C)[C@H](NC(=O)OCc1ccccc1)C(=O)N[C@@H](CC1CCCCC1)C(=O)N[C@H](C=O)Cc1ccc[nH]c1=O`: the EC50 in the assay on SARS-CoV-2 turned out to be 5 µM. For the same compound, the Ki worked out at 0.009 µM in assay [1] and 0.053 µM on Procathepsin L.

The values above are taken from ChEMBL document CHEMBL5034020, “Self-Masked Aldehyde Inhibitors: A Novel Strategy for Inhibiting Cysteine Proteases” (J Med Chem, 2021).
